Legend:
[1] = biological target: IL-17A(FLAG-Tagged): IL-17RA(His-Tagged) (Homo sapiens, UniProt Q16552, K93Q); experiment: IL-17A(FLAG-Tagged): IL-17RA(His-Tagged) Binding Disruption Eu-HTRF Assay, Protocol 1; details: Protocol 1, FLAG tagged IL-17A 2.5 nM; simple average if tested more than once
Outline: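 IC50 came from a one-site competition fit of the acceptor/donor (665/620 nm) HTRF ratio. His-tagged IL-17RA, Eu-anti-FLAG and D2-anti-His were added after a 1 h rt compound preincubation with FLAG-tagged IL-17A dimer in PBS/0.01% Triton X-100, followed by 2 h at rt before reading.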

[2] = system: IL-17A-induced G-CSF production in human normal keratinocyte (NHK); experiment: NHK Assay: IL-17A-induced G-CSF production in human normal keratinocyte; type: cell-based; details: Homo sapiens, Keratinocyte, 24 h, IL-17A 5 ng/mL, simple average if tested more than once
Outline: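 IC50 derives from G-CSF in supernatants, quantified by HTRF from a standard curve, with CellTiter-Glo viability compared to DMSO control. Before a 24 h, 37°C culture of normal human keratinocytes at 3000–4000 cells/well, compound dilutions were preincubated 1 h at rt with human IL-17A (5 ng/mL final), with 0.2% DMSO and 5% FBS.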

Sequence of UniProt Q16552 (Q16552 with tags, fused parts or gaps K93Q): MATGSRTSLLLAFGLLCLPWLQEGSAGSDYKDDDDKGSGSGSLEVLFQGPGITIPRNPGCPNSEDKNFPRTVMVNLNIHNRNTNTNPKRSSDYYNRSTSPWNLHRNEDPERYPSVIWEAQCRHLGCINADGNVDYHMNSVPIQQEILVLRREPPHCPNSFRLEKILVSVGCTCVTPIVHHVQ

`CC(C)n1nccc1C(=O)N[C@@H](COC(C)(C)C(F)(F)F)c1nc2cc([C@@H](C3CC3)N3CC(F)(F)CNC3=O)ccc2[nH]1` [Example 24, N—((R)-1-(5-((R)-Cyclopropyl(5,5-difluoro-2-oxotetrahydropyrimidin-1(2H)-yl)methyl)-1H-benzo[d]imidazol-2-yl)-2-((1,1,1-trifluoro-2-methylpropan-2-yl)oxy)ethyl)-1-isopropyl-1H-pyrazole-5-carboxamide] was tested, and the IC50 [1] was under 50 nM and the IC50 [2] was under 50 nM.

`COC[C@H](c1ccc2[nH]c(C(COC(C)(C)C(F)(F)F)NC(=O)c3nonc3C3CC3)nc2c1)N1CC(F)(F)CNC1=O` (single isomer, unassigned) [Example 35, 4-Cyclopropyl-N—((R*)-1-(5-((S)-1-(5,5-difluoro-2-oxotetrahydropyrimidin-1(2H)-yl)-2-methoxyethyl)-1H-benzo[d]imidazol-2-yl)-2-((1,1,1-trifluoro-2-methylpropan-2-yl)oxy)ethyl)-1,2,5-oxadiazole-3-carboxamide] gave an IC50 [1] of under 50 nM and an IC50 [2] of under 50 nM.

Compound `Cc1nonc1C(=O)N[C@@H](COC(C)(C)C(F)(F)F)c1nc2cc([C@@H](C3CC3)N3C[C@@H](C4CC4)NC3=O)ccc2[nH]1` [Example 84, N—((R)-1-(5-((R)-Cyclopropyl((R)-4-cyclopropyl-2-oxoimidazolidin-1-yl)methyl)-1H-benzo[d]imidazol-2-yl)-2-((1,1,1-trifluoro-2-methylpropan-2-yl)oxy)ethyl)-4-methyl-1,2,5-oxadiazole-3-carboxamide] has an IC50 [1] of under 50 nM and an IC50 [2] of under 50 nM.

Work on `CC(C)(OC[C@H](NC(=O)c1nonc1C1CC1)c1nc2cc(CN3C[C@](C)(C(F)(F)F)NC3=O)ccc2[nH]1)C(F)(F)F` (relative stereo) [Example 60, 4-Cyclopropyl-N—((R*)-1-(5-(((R*)-4-methyl-2-oxo-4-(trifluoromethyl)imidazolidin-1-yl)methyl)-1H-benzo[d]imidazol-2-yl)-2-((1,1,1-trifluoro-2-methylpropan-2-yl)oxy)ethyl)-1,2,5-oxadiazole-3-carboxamide] yielded an IC50 [1] of under 50 nM and an IC50 [2] of under 50 nM.

`[2H]C1([2H])[C@@H](C(F)(F)F)NC(=O)N1[C@@H](c1ccc2[nH]c([C@@H](NC(=O)c3nonc3C)[C@@H](C)O[C@@H](C)C(F)(F)F)nc2c1)C1CC1` (single isomer, unassigned) [Example 11] gave an IC50 [1] of over 100 nM and an IC50 [2] of over 100 nM.

For `Cc1nonc1C(=O)N[C@@H](COC(C)(C)C(F)(F)F)c1nc2ccc(CN3CC(F)(F)CNC3=O)cc2[nH]1` [Example 28, (R)—N-(1-(6-((5,5-Difluoro-2-oxotetrahydropyrimidin-1(2H)-yl)methyl)-1H-benzo[d]imidazol-2-yl)-2-((1,1,1-trifluoro-2-methylpropan-2-yl)oxy)ethyl)-4-methyl-1,2,5-oxadiazole-3-carboxamide], the IC50 [1] was under 50 nM and the IC50 [2] was under 50 nM.

`CC(C)(OC[C@H](NC(=O)c1nonc1C1CC1)c1nc2cc(CN3C[C@@](C)(C(F)(F)F)NC3=O)ccc2[nH]1)C(F)(F)F` (relative stereo) [Example 61, 4-Cyclopropyl-N—((R*)-1-(5-(((S*)-4-methyl-2-oxo-4-(trifluoromethyl)imidazolidin-1-yl)methyl)-1H-benzo[d]imidazol-2-yl)-2-((1,1,1-trifluoro-2-methylpropan-2-yl)oxy)ethyl)-1,2,5-oxadiazole-3-carboxamide] gave an IC50 [1] of under 50 nM and an IC50 [2] of under 50 nM.

`CC(C)n1nccc1C(=O)N[C@@H](COC(C)(C)C(F)(F)F)c1nc2nc(CN3C[C@H](C(F)(F)F)NC3=O)ccc2[nH]1` (relative stereo) [Example 36, 1-Isopropyl-N—((R*)-1-(5-(((R*)-2-oxo-4-(trifluoromethyl)imidazolidin-1-yl)methyl)-1H-imidazo[4,5-b]pyridin-2-yl)-2-((1,1,1-trifluoro-2-methylpropan-2-yl)oxy)ethyl)-1H-pyrazole-5-carboxamide] gave an IC50 [1] of under 50 nM and an IC50 [2] of under 50 nM.

From patent publication US20250122181A1, “BENZIMIDAZOLES AS MODULATORS OF IL-17” (Janssen Pharmaceutica NV, priority 2021, published 2025)
